Legend:
recombinant human NAMPT [1] = target: T1, recombinant human NAMPT (Homo sapiens, UniProt P43490); assay: NAMPT activity assay, IC50 determination (fluorometric detection of NMN derivative); conditions: molecular/biochemical assay, read-out: IC50 (NAMPT inhibition)
T1 construct: His tag (N); made in house; host or cells: E. coli BL21-CodonPlus (DE3)-RIL, pET21a+ vector
Source text: Using our previously established high throughput screening (HTS) platform and recombinant human NAMPT[14][15], we performed a HTS on a chemical library containing 30000 small-molecules (Chemdiv, CA, USA). Our HTS targeting NAMPT was developed based on a fluorometric method for NAMPT activity assay by measuring the fluorescence of nicotinamide mononucleotide (NMN) derivative resulting from the NAMPT enzymatic product NMN through simple chemical reactions (Fig. 1A). […] These fluorescent and non-fluorescent compounds were further studied separately.
HTS was performed using our previously reported method. 0.5 μl stock of each compound (1 mM DMSO stock) was transferred to a 96-well PCR plate for screening. In the primary screening, 5 ng NAMPT in 20 μl reaction buffer [0.4 mM phosphoribosylpyrophosphate (PRPP, Sigma), 2 mM ATP, 0.02% BSA, 2 mM DTT, 12 mM MgCl2 and 50 mM Tris-HCl (pH = 7.5)] was added into each well, the plate was incubated at 37 °C for 5 min, then 4.5 μl substrate of NAM was added to initiate the enzyme reaction, resulting in a final concentration of 2% DMSO, 2 μg/ml NAMPT, 0.2 μM NAM and 20 μM compound. After reacting at 37 °C for 15 min, the enzyme reaction was terminated by heating at 95 °C for 1 min and cooling in an ice bath. The product of NMN was detected through the following approach: after adding 10 μl 20% acetophenone in DMSO and 10 μl 2 M KOH into each well, the mixture was vortex-mixed and kept in ice bath for 2 min. […] Finally, 85 μl mixtures in each well were transferred into a flat-bottom 96-well black plate (Greiner), and the fluorescence (F) was measured using a Tecan Infinity M200 plate reader (Tecan Group Ltd.) by setting the excitation and emission wavelength to 382 nm and 445 nm respectively. The last row of each 96-well plate includes six wells of background controls and six wells of reference controls. The relative enzyme activity (Activity%) regulated by specific compound was calculated according to equation (1): […]
To determine the IC50 of inhibitors, 0.5 μl compound stocks with various concentrations were added into 96-well plate. The plate was incubated at 37 °C for 5 min after addition of 20 μl reaction buffer containing NAMPT. […] The IC50 values were determined by non-linear fitting of the concentration-dependent curves with the four-parameter IC50 logistic equation.

recombinant human NAMPT [2] = target: T1, recombinant human NAMPT; assay: HTS / fixed-concentration NAMPT activity screen (fluorometric); format: biochemical; conditions: 20 μM compound; analogues of the 46 non-fluorescent inhibitors
Source text: Using our previously established high throughput screening (HTS) platform and recombinant human NAMPT[14][15], we performed a HTS on a chemical library containing 30000 small-molecules (Chemdiv, CA, USA). Our HTS targeting NAMPT was developed based on a fluorometric method for NAMPT activity assay by measuring the fluorescence of nicotinamide mononucleotide (NMN) derivative resulting from the NAMPT enzymatic product NMN through simple chemical reactions (Fig. 1A). The 30000 compounds were dissolved with dimethyl sulfoxide (DMSO); most of compounds were soluble at 10 mM stock solution (94.1%), some compounds insoluble at 10 mM were soluble at 2.5 mM stock solution (4.4%), and the remaining compounds insoluble at 2.5 mM (1.5%) were diluted further during HTS experiments (Fig. 1B). To guarantee the quality of screening, S/N ratio, CV and Z’ factors were monitored throughout the screenings, and all three indices met the requirements of HTS (Fig. 1C–E). After a primary screen and a secondary screen of all compounds at 20 μM, 242 compounds were selected as the hits of NAMPT inhibitors (NAMPT activity < 40%), and the hit rate was ~0.8% (Fig. 1F). […] All these 55 compounds were not reported as NAMPT inhibitors previously. Among the 55 compounds, we noted 46 compounds were non-fluorescent and 9 compounds were fluorescent (Fig. 1F). These fluorescent and non-fluorescent compounds were further studied separately.
HTS was performed using our previously reported method. 0.5 μl stock of each compound (1 mM DMSO stock) was transferred to a 96-well PCR plate for screening. In the primary screening, 5 ng NAMPT in 20 μl reaction buffer [0.4 mM phosphoribosylpyrophosphate (PRPP, Sigma), 2 mM ATP, 0.02% BSA, 2 mM DTT, 12 mM MgCl2 and 50 mM Tris-HCl (pH = 7.5)] was added into each well, the plate was incubated at 37 °C for 5 min, then 4.5 μl substrate of NAM was added to initiate the enzyme reaction, resulting in a final concentration of 2% DMSO, 2 μg/ml NAMPT, 0.2 μM NAM and 20 μM compound. After reacting at 37 °C for 15 min, the enzyme reaction was terminated by heating at 95 °C for 1 min and cooling in an ice bath. The product of NMN was detected through the following approach: after adding 10 μl 20% acetophenone in DMSO and 10 μl 2 M KOH into each well, the mixture was vortex-mixed and kept in ice bath for 2 min. Then 45 μl 88% formic acid was added and the mixture was incubated at 37 °C for 10 min. Finally, 85 μl mixtures in each well were transferred into a flat-bottom 96-well black plate (Greiner), and the fluorescence (F) was measured using a Tecan Infinity M200 plate reader (Tecan Group Ltd.) by setting the excitation and emission wavelength to 382 nm and 445 nm respectively. The last row of each 96-well plate includes six wells of background controls and six wells of reference controls. The relative enzyme activity (Activity%) regulated by specific compound was calculated according to equation (1):
F0 was the averaged fluorescence of six background controls, representing zero activity from a simulated enzyme reaction with only NAMPT but no NAM and compound; F100% was the averaged fluorescence of six reference controls, representing 100% activity from intact enzyme reaction without compound perturbation.
Compounds with Activity% less than 40% were considered as inhibitors and subjected to a secondary screen inhibition validation, in which another background control (FC0), a simulated enzyme reaction with NAMPT and compound but no NAM, was introduced to eliminate the direct and/or indirect influence from compound. At this stage, the Activity% was calculated according to equation (2): […]

HepG2 cells = assay: Cell viability assay (CCK-8) in HepG2 cells; format: cell-based, human; conditions: 2 μM, 48 hours of incubation
Procedure: Cell viability was determined by our previous method[27] using the Cell Counting Kit-8 (CCK-8, Dojindo, Japan). In human hepatocellular carcinoma cell line HepG2, cells were seeded in 96-well plate and starved for over 12 h with serum-free DMEM at 60~70% confluency, then treated with compounds or vehicle for 48 h. To determine the IC50 values of inhibitors, compounds with various concentrations were added into the 96-well plate. 10 μl CCK-8 solution was added to the culture medium and incubated at 37 °C for 1 h. The absorbance at 450 nm (A450) was detected by a plate reader. Each experiment was carried out in triplicate in three replicate wells. The IC50 values were determined by non-linear fitting of the concentration-dependent curves with the four-parameter IC50 logistic equation.

T1 sequence (P43490 whole entry): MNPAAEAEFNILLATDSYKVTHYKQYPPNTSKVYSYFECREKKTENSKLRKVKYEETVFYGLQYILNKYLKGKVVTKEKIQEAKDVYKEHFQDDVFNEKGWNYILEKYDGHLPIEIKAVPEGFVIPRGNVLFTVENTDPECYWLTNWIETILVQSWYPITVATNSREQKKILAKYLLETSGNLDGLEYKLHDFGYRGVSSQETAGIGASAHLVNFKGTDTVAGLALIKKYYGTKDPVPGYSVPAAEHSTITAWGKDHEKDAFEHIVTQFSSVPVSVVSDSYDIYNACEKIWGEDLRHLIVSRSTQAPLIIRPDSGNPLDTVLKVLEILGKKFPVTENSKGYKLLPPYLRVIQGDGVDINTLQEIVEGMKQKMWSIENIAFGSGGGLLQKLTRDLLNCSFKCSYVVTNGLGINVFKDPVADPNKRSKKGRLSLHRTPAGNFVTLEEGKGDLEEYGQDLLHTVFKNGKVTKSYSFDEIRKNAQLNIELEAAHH

IC50 (recombinant human NAMPT [1])	NAMPT inhibition activity at 20 μM (recombinant human NAMPT [2])	Structure (SMILES)	Effect on HepG2 cell viability at 2 μM (HepG2 cells)
408.6 ± 1.83 nM	–	CC(=O)C1=C(C)Nc2ccccc2S1 [1932-0007]	–
59.4 ± 1.15 nM	–	O=C(CSc1nc2c(c(C(F)(F)F)n1)CCc1ccccc1-2)NCCCn1ccnc1 [6466-0191]	–
172 ± 17.3 nM	Yes	O=C(CSC1=Nc2ccccc2N=C(c2cccs2)C1)Nc1ccc2c(c1)OCCO2 [C201-1487]	–
1450 ± 51.7 nM	–	O=C(CSC1=Nc2ccccc2N=C(c2ccccn2)C1)Nc1ccc2c(c1)OCCO2 [C201-1928]	–
704 ± 16.7 nM	–	O=C(NCc1ccc(Cl)cc1)c1ccc(CNc2c(N3CCCCC3)c(=O)c2=O)cc1 [C804-0859]	–
1280 ± 154 nM	–	CC1CCN(c2c(NCc3ccc(C(=O)NCCc4ccccc4)cc3)c(=O)c2=O)CC1 [C852-0409]	–
869 ± 67.2 nM	–	CC1CCN(c2c(NCc3ccc(C(=O)NCc4ccc(F)cc4)cc3)c(=O)c2=O)CC1 [C852-0431]	–
283 ± 19.2 nM	–	CCCc1cc(Nc2ccc(C(=O)NCc3cccnc3)cc2)n2nc(-c3cccnc3)nc2n1 [D515-0654]	significant inhibition on cell viability
416 ± 30.7 nM	–	O=C(Nc1cccnc1)c1ccc(-n2cnnn2)cc1 [D633-0045]	–
298 ± 32.1 nM	–	Cc1nn(CCCC(=O)Nc2cccc(F)c2)c(=O)c2c1sc1ccccc12 [E019-0970]	–
739 ± 37.8 nM	–	CC(=O)c1ccc(NC(=O)Cc2noc3ccccc23)cc1 [E207-0481]	–
140 ± 7.31 nM	–	O=C(NCc1ccccc1)c1ccc(Cn2c(=O)c3cccn3c3cccnc32)cc1 [E524-1566]	significant inhibition on cell viability
75.9 ± 3.51 nM	–	COc1ccc(CNC(=O)c2ccc(Cn3c(=O)c4cccn4c4cccnc43)cc2)cc1 [E524-1597]	–
97.8 ± 3.13 nM	–	Cc1ccc(CNC(=O)c2ccc(Cn3c(=O)c4cccn4c4cccnc43)cc2)cc1 [E524-1599]	significant inhibition on cell viability
393 ± 8.51 nM	–	CC(C)CCNC(=O)c1ccc(Cn2c(=O)c3cccn3c3cccnc32)cc1 [E524-1626]	–
85.5 ± 11.1 nM	–	Cc1cccc(CNC(=O)c2ccc(Cn3c(=O)c4cccn4c4cccnc43)cc2)c1 [E524-1627]	significant inhibition on cell viability
70.9 ± 0.74 nM	–	O=C(NCCc1ccccc1)c1ccc(Cn2c(=O)c3cccn3c3cccnc32)cc1 [E524-1628]	–
253 ± 17.9 nM	–	Cc1ccccc1CCNC(=O)c1ccc(Cn2c(=O)c3cccn3c3cccnc32)cc1 [E524-1763]	–
1620 ± 57.9 nM	–	O=C(NCc1noc2ccccc12)NC1CCCCC1 [E567-0011]	–

IC50 (recombinant human NAMPT [1])	NAMPT inhibition activity at 20 μM (recombinant human NAMPT [2])	Structure (SMILES)	Effect on HepG2 cell viability at 2 μM (HepG2 cells)
411 ± 28.1 nM	–	COc1ccc(NC(=O)NCc2noc3ccccc23)cc1Cl [E567-0014]	–
62.6 ± 2.89 nM	–	CCc1ccc(NC(=O)NCc2noc3ccccc23)cc1 [E567-0089]	–
171 ± 10.7 nM	–	COc1ccc(NC(=O)NCc2noc3ccccc23)cc1 [E567-0222]	significant inhibition on cell viability
86.9 ± 2.77 nM	–	CCOC(=O)c1ccc(NC(=O)NCc2noc3ccccc23)cc1 [E567-0238]	–
250 ± 40.7 nM	–	CC(=O)c1cccc(NC(=O)NCc2noc3ccccc23)c1 [E567-0248]	–
202 ± 17.6 nM	–	COc1ccc(CCNC(=O)NCc2noc3ccccc23)c(OC)c1 [E567-0299]	–
401 ± 11.2 nM	–	COc1ccc(OC)c(CCNC(=O)NCc2noc3ccccc23)c1 [E567-0302]	–
126 ± 4.23 nM	–	CSc1ccc(CCNC(=O)NCc2noc3ccccc23)cc1 [E567-0304]	–
116 ± 13.1 nM	–	CN1C(=O)C(C)(C)c2cc(S(=O)(=O)NCc3ccc(C(=O)NCc4cccnc4)cc3)ccc21 [E589-3083]	–
171 ± 16.8 nM	–	Cc1cc2nc(C)c(=O)n(Cc3ccc(C(=O)NCc4ccccn4)cc3)c2cc1C [F671-0199]	–
1000 ± 57 nM	–	CCn1c(=O)c(=O)n(Cc2ccc(C(=O)NCc3cccc(Cl)c3)cc2)c2cccnc21 [F704-0076]	–
296 ± 7.61 nM	–	CCn1c(=O)c(=O)n(Cc2ccc(C(=O)NCc3ccc(Cl)cc3)cc2)c2cccnc21 [F704-0088]	–
1450 ± 143 nM	–	CCn1c(=O)c(=O)n(Cc2ccc(C(=O)NCc3ccccc3F)cc2)c2cccnc21 [F704-0231]	–
517 ± 37.9 nM	–	CCn1c(=O)c(=O)n(Cc2ccc(C(=O)NCc3cccc(Br)c3)cc2)c2cccnc21 [F704-0251]	–
411 ± 148 nM	–	O=C(NCCCN1CCCC1=O)c1ccc(N2CCc3ccccc32)s1 [G122-1637]	–
60.2 ± 3.63 nM	Yes	O=C(Nc1ccc(OCc2nnc(-c3ccccc3)o2)cc1)c1cnccn1 [M350-0100]	significant inhibition on cell viability
118 ± 10.7 nM	–	COc1ccc(-c2nnc(COc3ccc(NC(=O)c4cnccn4)cc3)o2)cc1 [M350-0814]	significant inhibition on cell viability
60.8 ± 2.61 nM	–	Cc1ccccc1-c1nnc(COc2ccc(NC(=O)c3cnccn3)cc2)o1 [M350-1052]	–

— publication PMC4521150, “Discovery of Novel Inhibitors and Fluorescent Probe Targeting NAMPT” (Scientific Reports, 2015)
